The text below walks through data of patent US9695118B2, “Benzamide derivative” (Chugai Seiyaku Kabushiki Kaisha, priority 2012, dated 2017).

pIC50: −log10 of the molar value.

A word on the pIC50: it is the negative decadic logarithm of the IC50, by convention in mol/L. A lower pIC50 goes with a large IC50.

Assay [1] addresses DDR1 (Homo sapiens (Human), UniProt Q08345). In words: biochemical.
Description: Measurement of DDR1 Binding Activity
DDR1 binding activity was measured by the LanthaScreen (Registered trademark) Eu Kinase Binding Assay (manufactured by Life Technologies Corporation). […] After reacting at room temperature for one hour, the fluorescence resonance energy transfer was measured.
The subject of assay [2] is human endometrial cancer cell line MFE-280. In words: Antitumor effect in cancer-bearing mice with subcutaneously transplanted MFE-280. The following applies: Dose 200 mg/kg, orally once daily; MFE-280 in BALB/c nude mice; 11th day after start of administration. The assay is classed as in vivo. The procedure: 3. Measurement of Antitumor Effect
The antitumor effect was measured for representative examples of the compounds of the present invention.
The antitumor effect was measured using cancer-bearing mice in which the human endometrial cancer cell line MFE-280 (manufactured by DSMZ) was subcutaneously transplanted to the flank of BALB/c nude mice (manufactured by Charles River Laboratories Japan, Inc.).
About 1×10^7 MFE-280 cells were subcutaneously transplanted to the flank of the purchased nude mice after a one-week quarantine period. The tumor size was measured with calipers, and the tumor volume was calculated (tumor volume=length×breadth^2/2 (mm^3)). The mice were subjected to the experiment when the tumor volume was about 200 mm^3.
The test compound was suspended in the administration solution, and 0.4 mL of the suspension was orally administered once daily. The antitumor effect was calculated as inhibition of tumor growth by comparing the tumor growth between the drug-treated group and the administration solution-administered control group on the 11th day after the start of administration.
Tumor volume growth inhibition (TGI)=(1−tumor volume growth in drug-treated group/tumor volume growth in control group)×100(%)

Chain of DDR1 (Q08345 19-913): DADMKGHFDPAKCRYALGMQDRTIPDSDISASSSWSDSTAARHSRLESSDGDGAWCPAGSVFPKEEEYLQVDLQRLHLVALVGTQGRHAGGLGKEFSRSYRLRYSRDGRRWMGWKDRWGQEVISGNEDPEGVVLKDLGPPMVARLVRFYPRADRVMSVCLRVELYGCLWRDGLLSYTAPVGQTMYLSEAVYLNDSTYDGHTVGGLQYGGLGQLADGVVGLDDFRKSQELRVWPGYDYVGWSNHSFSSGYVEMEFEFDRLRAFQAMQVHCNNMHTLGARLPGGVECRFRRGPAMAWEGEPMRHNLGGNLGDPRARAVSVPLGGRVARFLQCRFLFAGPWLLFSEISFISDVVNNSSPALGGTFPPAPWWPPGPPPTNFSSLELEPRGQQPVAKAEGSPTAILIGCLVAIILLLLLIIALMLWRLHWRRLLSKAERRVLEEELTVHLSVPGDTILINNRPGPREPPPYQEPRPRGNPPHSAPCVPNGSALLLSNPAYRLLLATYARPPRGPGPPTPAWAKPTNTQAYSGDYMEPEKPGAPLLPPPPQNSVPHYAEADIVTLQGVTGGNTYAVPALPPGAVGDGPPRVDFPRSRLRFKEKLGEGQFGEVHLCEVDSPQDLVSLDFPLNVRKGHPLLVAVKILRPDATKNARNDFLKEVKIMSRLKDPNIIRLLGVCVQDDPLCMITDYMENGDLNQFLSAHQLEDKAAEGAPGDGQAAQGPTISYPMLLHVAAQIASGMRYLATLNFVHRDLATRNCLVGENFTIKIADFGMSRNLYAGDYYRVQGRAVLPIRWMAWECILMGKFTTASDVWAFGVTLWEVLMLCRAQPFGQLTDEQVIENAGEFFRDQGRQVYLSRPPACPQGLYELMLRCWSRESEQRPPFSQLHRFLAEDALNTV

Consider `C#CCN(CC#C)[C@H]1CCCN(Cc2c(Cl)cc(C(=O)NCc3cc(Cl)ccc3S(=O)(=O)CC)cc2C(F)(F)F)C1` [DD-23, 4-[[(3S)-3-[Bis(prop-2-ynyl)amino]piperidin-1-yl]methyl]-3-chloro-N-[(5-chloro-2-ethylsulfonylphenyl)methyl]-5-(trifluoromethyl)benzamide], for which the pIC50 in assay [1] is 6.10.

`CCS(=O)(=O)c1ccc(Cl)cc1CNC(=O)c1cc(Br)cc(OC(F)(F)F)c1` [Compound A-10, 3-bromo-N-(5-chloro-2-ethanesulfonyl-benzyl)-5-trifluoromethoxy-benzamide] had a negative-log IC50 (pIC50) in assay [1] of 7.30.

With `CCS(=O)(=O)c1ccc(Cl)cc1CNC(=O)c1cc(Cl)c(CN2CCC([N+](C)(C)[O-])CC2)c(C(F)(F)F)c1` [Compound N-24], in assay [1], the pIC50 was 7.12.

Turning to `CCS(=O)(=O)c1ccc(Cl)cc1CNC(=O)c1ccc(CN2CCN(C)CC2)c(C(F)(F)F)c1` [Compound B-2, N-(5-Chloro-2-ethanesulfonyl-benzyl)-4-(4-methyl-piperazin-1-ylmethyl)-3-trifluoromethyl-benzamide], the “Antitumor effect TGI after 11 days passed (%)” value in assay [2] worked out at 61%.
